Laboratory results as given in US10597388B2, “Pyridazinone herbicides” (FMC CORPORATION, priority 2014, dated 2020).

Assays:
Test in all cases: Test E greenhouse herbicide test, pre- and postemergence
Type in all cases: in vivo
[1] = system: corn (Zea mays)
How it was run: (§1)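 Greenhouse pots; preemergence on silt loam, postemergence on plants 1- to 4-leaf (2 to 18 cm) grown in peat, vermiculite and nutrient medium. Test chemicals formulated in non-phytotoxic solvent with surfactant. Ratings taken after 14 to 21 d.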

[2] = system: foxtail, green (green foxtail, Setaria viridis); settings: Preemergence
How it was run: as §1

[3] = system: ragweed (common ragweed, Ambrosia elatior)
How it was run: as §1

[4] = system: crabgrass, Brazilian (Brazilian crabgrass, Digitaria horizontalis)
How it was run: as §1

[5] = system: johnsongrass (Sorghum halepense); settings: Preemergence
How it was run: as §1

[6] = system: nightshade (eastern black nightshade, Solanum ptycanthum); settings: Preemergence
How it was run: as §1

[7] = system: goosegrass (Eleusine indica); settings: Preemergence
How it was run: as §1

[8] = system: pigweed, palmer (palmer pigweed, Amaranthus palmeri)
How it was run: as §1

[9] = system: barnyardgrass (Echinochloa crus-galli)
How it was run: as §1

[10] = system: Italian ryegrass (Lolium multiflorum)
How it was run: as §1

[11] = system: kochia (Kochia scoparia)
How it was run: as §1

[12] = system: surinam grass (Brachiaria decumbens); settings: Preemergence
How it was run: as §1

[13] = system: nutsedge, yellow (yellow nutsedge, Cyperus esculentus); settings: Preemergence
How it was run: as §1

[14] = system: crabgrass, large (large crabgrass, Digitaria sanguinalis); settings: Preemergence
How it was run: as §1

[15] = system: waterhemp (common waterhemp, Amaranthus rudis)
How it was run: as §1

[16] = system: sandbur (southem sandbur, Cenchrus echinatus)
How it was run: as §1

[17] = system: velvetleaf (Abutilon theophrasti); settings: Preemergence
How it was run: as §1

[18] = 62 g ai/ha, Postemergence, scale 0 to 100 (0 no effect, 100 complete control)
[19] = 62 g ai/ha, Preemergence, scale 0 to 100 (0 no effect, 100 complete control)
[20] = 125 g ai/ha, Postemergence, scale 0 to 100 (0 no effect, 100 complete control)
[21] = 125 g ai/ha, Preemergence, scale 0 to 100 (0 no effect, 100 complete control)
[22] = 250 g ai/ha, Postemergence, scale 0 to 100 (0 no effect, 100 complete control)
[23] = Postemergence, 31 g ai/ha, visual, scale 0 no effect to 100 complete control
[24] = Preemergence, 31 g ai/ha, scale 0 to 100, 0 no effect, 100 complete control
[25] = Preemergence, 250 g ai/ha, visual, scale 0 no effect to 100 complete control
[26] = 62 g ai/ha, scale 0 to 100 (0 no effect, 100 complete control)
[27] = 125 g ai/ha, scale 0 to 100 (0 no effect, 100 complete control)
[28] = 31 g ai/ha, scale 0 to 100, 0 no effect, 100 complete control
[29] = 250 g ai/ha, visual, scale 0 no effect to 100 complete control

COC(=O)Oc1c(C)nn(C)c(=O)c1-c1c(C)sc2c(C)cc(C)cc12 [Compound 81]
5: Plant response rating, Corn [1, 20] | Plant response rating, Corn [1, 22]
30: Plant response rating, Pigweed, Palmer [8, 23] | Plant response rating, Barnyardgrass [9, 20] | Plant response rating, Nutsedge, Yellow [13, 26]
98: Plant response rating, Nightshade [6, 29] | Plant response rating, Crabgrass, Large [14, 29]
35: Plant response rating, Pigweed, Palmer [8, 24] | Plant response rating, Barnyardgrass [9, 21] | Plant response rating, Kochia [11, 21] | Plant response rating, Nutsedge, Yellow [13, 28]
65: Plant response rating, Crabgrass, Brazil [4, 24] | Plant response rating, Johnsongrass [5, 27]
50: Plant response rating, Crabgrass, Brazil [4, 20] | Plant response rating, Crabgrass, Brazil [4, 22] | Plant response rating, Pigweed, Palmer [8, 22] | Plant response rating, Barnyardgrass [9, 22] | Plant response rating, Ryegrass, Italian [10, 23] | Plant response rating, Crabgrass, Large [14, 28] | Plant response rating, Waterhemp [15, 23]
20: Plant response rating, Foxtail, Green [2, 28] | Plant response rating, Goosegrass [7, 28] | Plant response rating, Pigweed, Palmer [8, 18] | Plant response rating, Barnyardgrass [9, 18] | Plant response rating, Barnyardgrass [9, 23] | Plant response rating, Kochia [11, 19]
0: Plant response rating, Corn [1, 18] | Plant response rating, Corn [1, 19] | Plant response rating, Corn [1, 21] | Plant response rating, Corn [1, 23] | Plant response rating, Corn [1, 24] | Plant response rating, Corn [1, 25] | Plant response rating, Barnyardgrass [9, 24] | Plant response rating, Kochia [11, 24]
75: Plant response rating, Pigweed, Palmer [8, 19] | Plant response rating, Pigweed, Palmer [8, 21] | Plant response rating, Barnyardgrass [9, 25] | Plant response rating, Ryegrass, Italian [10, 20] | Plant response rating, Ryegrass, Italian [10, 24] | Plant response rating, Kochia [11, 22] | Plant response rating, Crabgrass, Large [14, 26] | Plant response rating, Waterhemp [15, 22] | Plant response rating, Sandbur [16, 22]
25: Plant response rating, Barnyardgrass [9, 19]
80: Plant response rating, Ragweed [3, 22] | Plant response rating, Nightshade [6, 28] | Plant response rating, Goosegrass [7, 29] | Plant response rating, Ryegrass, Italian [10, 22] | Plant response rating, Nutsedge, Yellow [13, 27]
95: Plant response rating, Foxtail, Green [2, 27] | Plant response rating, Crabgrass, Brazil [4, 19] | Plant response rating, Ryegrass, Italian [10, 19] | Plant response rating, Surinam Grass [12, 27] | Plant response rating, Surinam Grass [12, 29] | Plant response rating, Velvetleaf [17, 29]
85: Plant response rating, Ragweed [3, 20]
60: Plant response rating, Ragweed [3, 18] | Plant response rating, Ragweed [3, 23] | Plant response rating, Kochia [11, 23] | Plant response rating, Waterhemp [15, 20] | Plant response rating, Waterhemp [15, 24] | Plant response rating, Sandbur [16, 23]
90: Plant response rating, Ragweed [3, 24] | Plant response rating, Crabgrass, Brazil [4, 21] | Plant response rating, Johnsongrass [5, 26] | Plant response rating, Nightshade [6, 26] | Plant response rating, Ryegrass, Italian [10, 21] | Plant response rating, Surinam Grass [12, 26] | Plant response rating, Nutsedge, Yellow [13, 29] | Plant response rating, Crabgrass, Large [14, 27] | Plant response rating, Waterhemp [15, 19] | Plant response rating, Waterhemp [15, 21] | Plant response rating, Waterhemp [15, 25] | Plant response rating, Sandbur [16, 25] | Plant response rating, Velvetleaf [17, 27]
70: Plant response rating, Foxtail, Green [2, 26] | Plant response rating, Johnsongrass [5, 28] | Plant response rating, Goosegrass [7, 27] | Plant response rating, Ryegrass, Italian [10, 18] | Plant response rating, Kochia [11, 18] | Plant response rating, Kochia [11, 20] | Plant response rating, Surinam Grass [12, 28] | Plant response rating, Sandbur [16, 20] | Plant response rating, Sandbur [16, 21] | Plant response rating, Velvetleaf [17, 26]
10: Plant response rating, Sandbur [16, 24] | Plant response rating, Velvetleaf [17, 28]
100: Plant response rating, Foxtail, Green [2, 29] | Plant response rating, Ragweed [3, 19] | Plant response rating, Ragweed [3, 21] | Plant response rating, Ragweed [3, 25] | Plant response rating, Crabgrass, Brazil [4, 25] | Plant response rating, Johnsongrass [5, 29] | Plant response rating, Nightshade [6, 27] | Plant response rating, Pigweed, Palmer [8, 25] | Plant response rating, Ryegrass, Italian [10, 25] | Plant response rating, Kochia [11, 25]
40: Plant response rating, Crabgrass, Brazil [4, 18] | Plant response rating, Crabgrass, Brazil [4, 23] | Plant response rating, Goosegrass [7, 26] | Plant response rating, Sandbur [16, 19]
